Columns and labels:
Assay type in all cases: cell-based, human
arterial and venous ECs = experiment: IOX2 treatment of arterial and venous LSEC-LCs (HIF1a signalling), flow cytometry and qRT-PCR
From the text: FIG. 6: CD32B Expression is Regulated by Hypoxia/HIFla Signalling. […] (6B) Representative flow cytometric analysis of normoxic cultured CD31+ arterial LSEC-LCs treated with DMSO or IOX2 at increasing doses (days 12-16). (6C) qRT-PCR analysis of LSEC markers in day 16 arterial and venous LSEC-LCs cultured under normoxia conditions treated with DMSO or increasing IOX2 doses for 4 days (ANOVA with Bonferroni test, *p<0.05, comparing arterial and venous cells at give IOX2 doses). (6D) Representative flow cytometric analysis of day 16 arterial and venous CD31+ LSEC-LCs cultured under normoxic and hypoxic conditions with and without IOX2. For all qRT-PCR analysis, expression values are normalized to levels of the housekeeping gene TBP. Error bars represent SEM.
To further investigate the role of oxygen on LSEC marker expression, we next interrogated the HIFI a signaling pathway as a probable mechanistic regulator of EC gene expression.

[1] = test system: venous angioblast-derived populations; experiment: LSEC-LC specification of venous angioblast-derived populations, RT-qPCR of LSEC associated markers; conditions: for expression of LSEC associated markers (LYVE1, STAB2, FCGR2B, F8): treated every 2 days for 4 days, RT-qPCR of bulk populations
Procedure: (3A) Schematic of EB-based hPSC-derived day 4 mesoderm differentiation to venous angioblasts, endothelial cells and LSEC-like cells (LSEC-LCs). […] For all qRT-PCR analysis, expression values are normalized to levels of the housekeeping gene TBP. Error bars represent SEM.
The resulting bulk populations were analyzed for expression of LSEC associated markers by RT-qPCR (FIG. 3B). Based on immunofluorescence (Strauss et al., 2017), flow cytometry (Fomin et al., 2013), bulk RNA-seq (Shahani et al., 2014), and recent single cell RNA-seq of human liver (MacParland et al., 2018) studies, human LSECs are distinguished by the co-expression of surface receptors, secreted proteins, and transcription factors including, LYVE1, CD14, CD32B (FCGR2B), CD36, CD54 (ICAM1), CD73, CD144, CD206 (MRC1), STAB1, STAB2, CLEC1B, PLAVP, GATA4 and F8 among others. Additionally, they express lower levels of canonical vascular markers such as CD31(PECAM1), CD34, CD105, CD309 (KDR), and VWF than portal arterial and venous endothelial cells. As a candidate marker set we focused the analysis on expression of scavenger receptors LYVE1, STAB2, CD32B/FCGR2B, F8, and VWF.

[2] = test system: tdRFP+ CD31+ CD32+ LYVE1+ cells; experiment: Fenestration by scanning electron microscopy after latrunculin A stimulation
From the text: FIG. 11: hPSC-Derived, In Vivo Matured LSECs are Fenestrated and Scavenge E. coli Bioparticles. (11A) Representative scanning electron microscopic images of primary human insitu vasculature imaged on the cut surface of fresh fixed liver tissue. LSECs, terminal portal venous endothelium and hepatic artery endothelium are shown for comparison of presence (indicated by white arrows) or absence of fenestrations. (11B) Representative scanning electron microscopic images of day 8 venous angioblast-derived, in vivo-matured, FACS-isolated based on indicated marker panels, overnight-cultured, treated for 30 minutes with or without fenestration (white arrows) stimulating 0.1 μg/ml Latrunculin A, fixed and processed for SEM. Imaging conditions and scale bar are indicated on each image. (11C) Quantification of fenestrated cells (>10 fenestrations arranged in a defined sieve plate cluster), endothelial cells (smooth edged cells with angiogenic lateral sprouts free from fibroblast-like adhesions), non-endothelial cells (fibroblast-like cells and rounded cells) was performed manually on the indicated numbers of cells from a total of at least 4 independent replicates pooling the data. Comparative in vitro derived cells including venous LSEC-LCs sorted as CD31+CD32+LVYE1+ on day 18, replated and cultured for an additional 10 days in addition to standard multi-donor derived HUVECs that were also quantified with and without Latrunculin A stimulation. (11D-11E) Quantification of fenestration size (longest diameter) in (11C) primary human LSECs in situ (black), venous angioblast-derived, in vivo matured and isolated LSECs with (white) and without (grey) latrunculin A stimulation. (11E) Quantification of surface area of LSECs covered by fenestrations before and after latrunculin stimulation. Error bars represent SEM. […]

[3] = test system: hPSC-derived day 4 mesoderm; experiment: VEGF and bFGF titration on day 4 mesoderm cultures, day 6 flow cytometry for CD34+ angioblast subpopulations
Procedure: (1A) Schematic of EB-based hPSC differentiation to venous angioblasts. (1B) Heatmap comparing kinetic gene expression profiles of day 0-8 bulk EB populations and day 8 CD34+ MACS enriched angioblasts following venous differentiation (day 4-8 10 ng/ml VEGFA, 30 ng/ml bFGF 10 μm GSI) as in (1A). High (dark) and low (light) expression levels are indicated for each gene. (1C) Representative flow cytometric analysis of day 4 KDR+CD56+CD235a-mesodermal cells and day 8 CD34+CD31 low venous angioblasts before and after MACS enrichment. […] For all qRT-PCR analysis, expression values are normalized to levels of the housekeeping gene TBP. Error bars represent SEM.
Previous work from our group (Ditadi et al., 2015) and others (Zhang et al., 2017), has shown that VEGF, bFGF, NOTCH signaling play a role in the specification of arterial and venous vascular fates in hPSC differentiation cultures. The effects of VEGF signaling in promoting arterial and venous development were assessed. To address this, different concentrations of VEGF (0 to 100 ng/ml) were added to day 4 cultures that contained low amounts of bFGF (5 ng/ml) and the resulting day 6 populations were analyzed for the presence of CD34^+CD31^+ vascular cells and CD184^+CD73^lowCD34^+ and CD184^−CD73^+CD34^+ populations that we have previously shown contain progenitors specified to arterial and venous fates respectively.

[4] = arterial and venous ECs, normoxia, 4 days, qRT-PCR
[5] = tdRFP+ CD31+ CD32+ LYVE1+ cells, 30 minutes stimulation
[6] = bFGF up to 30 ng/ml with VEGF 100 ng/ml, days 4-6

O=C(O)CNC(=O)c1c(O)c2ccccc2n(Cc2ccccc2)c1=O [IOX2]
conversion of CD31+ ECs to LYVE1+CD32+ LSEC-LCs (arterial and venous ECs; 4-day application under hypoxic conditions, by day 16): highly efficient conversion
CD32 protein (arterial and venous ECs; CD31+LYVE1+ arterial ECs under elevated oxygen conditions, increasing doses, days 12-16): dose dependant upregulation
FCGR2B and F8 expression (arterial and venous ECs; [4]): upregulated
LYVE1 expression (arterial and venous ECs; [4]): significantly downregulated
STAB2 expression (arterial and venous ECs; [4]): did not change

NC(=O)c1ccc(-c2nc(-c3ccc4c(c3)OCO4)c(-c3ccccn3)[nH]2)cc1 [SB431542, 4-(4-(benzo[d][1,3]dioxol-5-yl)-5-(pyridin-2-yl)-1H-imidazol-2-yl)benzamide]
expression of LSEC associated markers (LYVE1, STAB2, FCGR2B, F8) [1]: induced the expression of STAB2 and FCGR2B but not LYVE1

C/C1=C/C(=O)O[C@@H]2C[C@@H](CC[C@H](C)/C=C\C=C\CC1)O[C@@](O)([C@@H]1CSC(=O)N1)C2 [latrunculin A]
induction of fenestrations ([2]; HUVECs and extended culture venous LSEC-LCs): nor were they able to be induced to form fenestrations
cell surface covered by stimulated fenestrations [2, 5]: approximately 40%
size of the fenestration type that accounts for the increase [2, 5]: ~60 nm

VEGF
bias of CD34+ cells to arterial or venous subpopulation ([3]; 100 ng/ml VEGF, 5 ng/ml bFGF, day 6): predominantly CD184^+CD73^low arterial-like population
frequency of CD34+ cells ([3]; VEGF 0 to 100 ng/ml added to day 4 cultures with 5 ng/ml bFGF, day 6): significant and dose dependant increase

bFGF: bFGF (also referred to as FGF2), growth factor
size of the CD34+CD184+CD73low subpopulation [3, 6]: decrease
size of the CD34+CD184-CD73- subpopulation [3, 6]: increase
size of the total CD34+ population [3, 6]: modest increase

B1: VEGFC: VEGFC growth factor, 0 or 100 ng/ml (protein, UniProt P49767 112-227, looked up)
Vascular endothelial growth …: AHYNTEILKSIDNEWRKTQCMPREVCIDVGKEFGVATNTFFKPPCVSVYRCGGCCNSEGLQCMNTSTSYLSKTLFEITVPLSQGPKPVTISFANHTSCRCMSKLDVYRQVHSIIRR
expression of lymphatic markers PROX1 and FLT4 ([1]; VEGFC 100 ng/ml, 4 days, RT-qPCR): increased
expression of LSEC associated markers (LYVE1, STAB2, FCGR2B, F8) [1]: modestly enhance the expression of some LSEC markers
